± gives the standard deviation of the averaged measurements.
Legend:
Test in all cases: level (log10 ratio to DMSO vehicle control); higher = higher biomarker level / cell amount than vehicle control
[1] = compound: C[C@@H]1C[C@H]2[C@@H]3CCC4=CC(=O)C=C[C@]4(C)[C@@]3(F)[C@@H](O)C[C@]2(C)[C@@]1(O)C(=O)COP(=O)(O)O [Dexamethasone sodium phosphate] (in DMSO)
Experimental: (§1)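 BioMAP Diversity Plus panel of 12 human primary cell co-culture systems (3C, 4H, LPS, SAg, BT, BF4T, BE3C, CASM3C, HDF3CGF, KF3CT, MyoF, Mphg). Compounds were added 1 h before stimulation and left for 24 h (MyoF 48 h; BT 72 h for soluble read-outs or 6 d for IgG). Biomarkers were read by ELISA, cytotoxicity by SRB, PBMC viability and proliferation by Alamar Blue. Each well value was divided by the mean of 8 DMSO control wells on the same plate and log10 transformed; duplicate blinded samples were tested at 4 concentrations.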

[2] = compound: NS(=O)(=O)C(F)(F)C(F)(F)C(F)(F)C(F)(F)C(F)(F)C(F)(F)C(F)(F)C(F)(F)F [Perfluorooctanesulfonamide] (in DMSO)
Experimental: as §1

Perfluoroundecanoic acid = compound: O=C(O)C(F)(F)C(F)(F)C(F)(F)C(F)(F)C(F)(F)C(F)(F)C(F)(F)C(F)(F)C(F)(F)C(F)(F)F [Perfluoroundecanoic acid] (in DMSO); details: 6700 nM
Experimental: as §1

Perfluorononanoic acid = compound: O=C(O)C(F)(F)C(F)(F)C(F)(F)C(F)(F)C(F)(F)C(F)(F)C(F)(F)C(F)(F)F [Perfluorononanoic acid] (in DMSO)
Experimental: as §1

[3] = compound: O=C(O)C(F)(OC(F)(F)C(F)(OC(F)(F)C(F)(OC(F)(F)C(F)(F)C(F)(F)F)C(F)(F)F)C(F)(F)F)C(F)(F)F [Perfluoro-(2,5,8-trimethyl-3,6,9-trioxadodecanoic)acid] (in DMSO)
Experimental: as §1

[4] = compound: O=S(=O)(O)C(F)(F)C(F)(F)OC(F)(F)C(F)(F)F [Perfluoro(2-ethoxyethane)sulfonic acid] (in DMSO)
Experimental: as §1

[5] = compound: OCCC(F)(F)C(F)(F)C(F)(F)C(F)(F)F [4:2 Fluorotelomer alcohol] (in DMSO)
Experimental: as §1

| Test System | level (log10) ([1]; 1500 nM) | level (log10) ([1]; 4400 nM) | level (log10) ([1]; 13000 nM) | level (log10) ([1]; 40000 nM) | level (log10) ([2]; 6700 nM) | level (log10) ([2]; 20000 nM) | level (log10) (Perfluoroundecanoic acid) | level (log10) (Perfluorononanoic acid; 6700 nM) | level (log10) (Perfluorononanoic acid; 20000 nM) | level (log10) ([3]; 1100 nM) | level (log10) ([3]; 3300 nM) | level (log10) ([3]; 10000 nM) | level (log10) ([4]; 6700 nM) | level (log10) ([4]; 20000 nM) | level (log10) ([4]; 60000 nM) | level (log10) ([5]; 6700 nM) | level (log10) ([5]; 20000 nM) | level (log10) ([5]; 60000 nM) |
| --- | --- | --- | --- | --- | --- | --- | --- | --- | --- | --- | --- | --- | --- | --- | --- | --- | --- | --- |
| 3C:CD87/uPAR | 0.0545 ± 0.013 | 0.048 ± 0.02 | 0.0455 ± 0.00071 | 0.016 ± 0.016 | 0.006 ± 0.0099 | -0.0425 ± 0.016 | -0.0125 ± 0.005 | 0.002 ± 0.011 | -0.018 ± 0.016 | -0.0075 ± 0.016 | -0.0005 ± 0.011 | -0.0105 ± 0.019 | 0.0105 ± 0.0064 | 0.0165 ± 0.0021 | 0.007 ± 0.0071 | -0.015 ± 0.014 | -0.0215 ± 0.028 | 0.005 ± 0.0071 |
| 3C:CXCL8/IL-8 | 0.014 ± 0.027 | -0.0015 ± 0.0035 | -0.0035 ± 0.032 | -0.007 ± 0.062 | 0.012 ± 0.018 | 0.0635 ± 0.0064 | -0.022 ± 0.02 | 0.0175 ± 0.0021 | 0.0475 ± 0.013 | -0.004 ± 0.021 | -0.015 ± 0.011 | 0.005 ± 0.024 | 0.0295 ± 0.028 | 0.0455 ± 0.074 | 0.095 ± 0.062 | -0.002 | 0.017 ± 0.031 | 0.044 ± 0.059 |
| 3C:CXCL9/MIG | 0.0025 ± 0.0021 | 0.001 ± 0.0085 | -0.004 ± 0.0071 | 0.003 ± 0.0085 | 0.0225 ± 0.021 | 0.006 ± 0.028 | 0.0025 ± 0.005 | -0.0085 ± 0.0064 | 0.0045 ± 0.0064 | 0.0125 ± 0.0078 | -0.0035 ± 0.021 | 0.007 ± 0.0071 | -0.0005 ± 0.0064 | -0.0045 ± 0.0035 | 0.0075 ± 0.0021 | -0.01 ± 0.0057 | -0.0025 ± 0.0078 | 0 ± 0.0042 |
| 3C:HLA-DR | -0.0025 ± 0.012 | -0.0065 ± 0.022 | 0.0035 ± 0.0035 | 0.0135 ± 0.0035 | -0.0115 ± 0.043 | -0.118 ± 0.082 | -0.023 ± 0.0014 | -0.024 ± 0.033 | 0.017 ± 0.021 | -0.0045 ± 0.0078 | -0.002 ± 0.0057 | 0.0115 ± 0.013 | -0.005 | -0.0045 ± 0.005 | 0.008 ± 0.0099 | -0.019 | -0.0145 ± 0.0092 | 0 ± 0.011 |
| 3C:Proliferation | -0.0115 ± 0.005 | 0.011 ± 0.092 | -0.0045 ± 0.052 | 0.015 ± 0.02 | -0.039 ± 0.0099 | -0.208 ± 0.02 | 0.027 ± 0.013 | 0.0095 ± 0.073 | 0.0795 ± 0.03 | 0.007 ± 0.02 | 0.013 ± 0.0085 | -0.011 ± 0.013 | -0.043 ± 0.025 | -0.027 ± 0.034 | -0.0325 ± 0.042 | -0.011 ± 0.014 | -0.0175 ± 0.032 | 0.013 ± 0.024 |
| 3C:SRB | -0.0005 ± 0.00071 | -0.005 ± 0.0085 | -0.0025 ± 0.025 | 0.0035 ± 0.025 | 0.0135 ± 0.022 | -0.088 ± 0.0042 | 0.0095 ± 0.015 | -0.002 ± 0.0042 | -0.003 | -0.0025 ± 0.005 | -0.0065 ± 0.0035 | 0.003 ± 0.0071 | -0.022 ± 0.0042 | -0.0025 ± 0.00071 | -0.0275 ± 0.0021 | -0.006 ± 0.0085 | -0.0065 ± 0.011 | -0.0045 ± 0.0092 |
| 4H:CCL2/MCP-1 | -0.0075 ± 0.018 | 0.005 ± 0.033 | 0.017 ± 0.041 | 0.043 ± 0.025 | -0.093 ± 0.023 | -0.124 ± 0.0021 | -0.024 ± 0.023 | -0.074 ± 0.013 | -0.0405 ± 0.005 | 0.0005 ± 0.012 | -0.017 ± 0.0099 | 0.0205 ± 0.021 | -0.019 ± 0.05 | -0.008 ± 0.021 | -0.0015 ± 0.016 | -0.101 ± 0.0071 | -0.0325 ± 0.0064 | 0.0115 ± 0.025 |
| 4H:CCL26/Eotaxin-3 | -0.0175 ± 0.0035 | -0.0315 ± 0.0035 | -0.0285 ± 0.029 | -0.052 ± 0.078 | -0.0145 ± 0.013 | -0.03 ± 0.042 | 0.016 ± 0.03 | -0.008 ± 0.0071 | -0.03 ± 0.018 | 0.0005 ± 0.0078 | -0.0095 ± 0.023 | -0.0075 ± 0.005 | 0.049 ± 0.027 | 0.0585 ± 0.0078 | 0.0405 ± 0.00071 | -0.018 ± 0.016 | -0.0045 ± 0.0035 | -0.0015 ± 0.0035 |

Source: the supplement of paper PMC10331698
